This passage reports inhibition and IC50 results from ChEMBL document CHEMBL3217591, “Synthesis and biological evaluation of imidazolylmethylacridones as cytochrome P-450 enzymes inhibitors” (Medchemcomm, 2012).

Usually inhibition stands for how much of the control response was suppressed. Broadly, the IC50 is the concentration needed to halve the response being measured.

In experiment [1] the target is T1, Cytochrome P450 11B1, mitochondrial (Homo sapiens, UniProt P15538).
T1 sequence (P15538 whole entry): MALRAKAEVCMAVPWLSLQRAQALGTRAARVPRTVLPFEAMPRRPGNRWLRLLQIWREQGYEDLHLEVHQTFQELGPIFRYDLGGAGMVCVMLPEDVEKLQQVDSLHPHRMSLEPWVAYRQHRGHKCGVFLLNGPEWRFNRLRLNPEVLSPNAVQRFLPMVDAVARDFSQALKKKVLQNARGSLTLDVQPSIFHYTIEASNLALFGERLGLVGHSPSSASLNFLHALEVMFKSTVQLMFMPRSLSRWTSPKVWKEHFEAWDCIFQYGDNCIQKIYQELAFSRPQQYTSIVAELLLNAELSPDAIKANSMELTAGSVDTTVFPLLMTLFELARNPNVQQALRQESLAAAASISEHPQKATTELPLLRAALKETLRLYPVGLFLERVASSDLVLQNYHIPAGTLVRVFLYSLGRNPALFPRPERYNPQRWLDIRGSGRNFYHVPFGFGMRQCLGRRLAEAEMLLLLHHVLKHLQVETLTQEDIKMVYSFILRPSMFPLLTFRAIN
Description: Inhibition of CYP11B1 (unknown origin) expressed in Chinese hamster V79MZ cells using [1,2-3H]-11-deoxycorticosterone as substrate at 500 nM preincubated for 60 mins followed by substrate addition measured after 25 mins by HPLC analysis relative to control. It counts as cell-based.

Experiment [2] addresses T1, Cytochrome P450 11B1, mitochondrial. In words: Inhibition of CYP11B1 (unknown origin) expressed in Chinese hamster V79MZ cells using [1,2-3H]-11-deoxycorticosterone as substrate preincubated for 60 mins followed by substrate addition measured after 25 mins by HPLC analysis. Format: cell-based.
The target in experiment [3] is T2, Cytochrome P450 11B2, mitochondrial (Homo sapiens, UniProt P19099).
T2 sequence (P19099 whole entry): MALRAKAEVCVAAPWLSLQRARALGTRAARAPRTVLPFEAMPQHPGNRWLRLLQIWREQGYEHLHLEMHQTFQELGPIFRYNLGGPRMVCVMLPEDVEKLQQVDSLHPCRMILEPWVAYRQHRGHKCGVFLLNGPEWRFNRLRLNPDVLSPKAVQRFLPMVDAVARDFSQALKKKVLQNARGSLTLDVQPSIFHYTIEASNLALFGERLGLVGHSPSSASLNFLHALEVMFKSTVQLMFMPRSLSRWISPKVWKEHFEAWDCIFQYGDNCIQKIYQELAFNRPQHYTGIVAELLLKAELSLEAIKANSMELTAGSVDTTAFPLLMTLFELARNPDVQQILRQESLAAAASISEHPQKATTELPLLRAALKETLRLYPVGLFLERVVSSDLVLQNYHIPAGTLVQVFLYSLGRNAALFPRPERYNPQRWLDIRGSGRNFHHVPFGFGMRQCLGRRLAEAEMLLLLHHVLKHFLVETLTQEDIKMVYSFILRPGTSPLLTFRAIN
Description: Inhibition of CYP11B2 (unknown origin) expressed in Chinese hamster V79MZ cells using [1,2-3H]-11-deoxycorticosterone as substrate at 500 nM preincubated for 60 mins followed by substrate addition measured after 50 mins by HPLC analysis relative to control. Format: cell-based.

Experiment [4] concerns the target T3, Steroid 17-alpha-hydroxylase/17,20 lyase (Homo sapiens, UniProt P05093).
T3 sequence (P05093 whole entry): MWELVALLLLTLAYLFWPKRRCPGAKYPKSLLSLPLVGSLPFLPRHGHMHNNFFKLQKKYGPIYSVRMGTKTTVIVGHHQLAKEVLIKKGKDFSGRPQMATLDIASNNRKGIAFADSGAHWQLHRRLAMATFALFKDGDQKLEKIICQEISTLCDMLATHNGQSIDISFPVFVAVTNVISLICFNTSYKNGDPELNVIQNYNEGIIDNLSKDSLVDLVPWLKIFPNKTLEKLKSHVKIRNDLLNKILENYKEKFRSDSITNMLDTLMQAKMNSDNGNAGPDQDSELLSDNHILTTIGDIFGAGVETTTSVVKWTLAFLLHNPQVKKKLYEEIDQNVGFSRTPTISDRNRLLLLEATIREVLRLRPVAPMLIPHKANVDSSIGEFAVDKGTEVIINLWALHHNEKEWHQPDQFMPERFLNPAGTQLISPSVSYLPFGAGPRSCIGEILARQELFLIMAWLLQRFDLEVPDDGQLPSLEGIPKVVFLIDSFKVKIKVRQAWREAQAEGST
Description: Inhibition of human CYP17 expressed in Escherichia coli using progesterone as substrate at 2 uM preincubated for 5 mins followed by enzyme addition measured after 30 mins by HPLC analysis relative to control. Particulars: 0.5 h.

Experiment [5] deals with T4, Aromatase (Homo sapiens, UniProt P11511).
T4 sequence (P11511 whole entry): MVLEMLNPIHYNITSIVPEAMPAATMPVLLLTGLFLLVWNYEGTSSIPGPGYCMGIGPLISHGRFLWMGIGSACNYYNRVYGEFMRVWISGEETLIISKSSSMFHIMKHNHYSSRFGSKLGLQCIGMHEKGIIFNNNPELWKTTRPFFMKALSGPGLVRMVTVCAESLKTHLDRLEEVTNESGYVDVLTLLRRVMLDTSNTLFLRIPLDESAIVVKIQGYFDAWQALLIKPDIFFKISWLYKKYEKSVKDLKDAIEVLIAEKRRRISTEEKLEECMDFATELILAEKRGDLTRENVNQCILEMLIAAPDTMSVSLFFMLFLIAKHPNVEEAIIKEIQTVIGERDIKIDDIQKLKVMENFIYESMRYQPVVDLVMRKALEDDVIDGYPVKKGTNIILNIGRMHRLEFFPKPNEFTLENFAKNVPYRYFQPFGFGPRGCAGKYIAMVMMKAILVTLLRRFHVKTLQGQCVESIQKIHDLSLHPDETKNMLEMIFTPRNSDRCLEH
In words: Inhibition of CYP19 isolated from microsomal fraction of human term placental tissue using [1beta-3H] androstenedione as substrate at 2 uM preincubated for 5 mins followed by enzyme addition measured after 20 mins by beta scintillation counting analysis relative to control.

In experiment [6] the target is T4, Aromatase. In words: Inhibition of CYP19 isolated from microsomal fraction of human term placental tissue using [1beta-3H] androstenedione as substrate preincubated for 5 mins followed by enzyme addition measured after 20 mins by beta scintillation counting analysis.

With `O=c1c2ccccc2[nH]c2c(Cn3ccnc3)cccc12`, the results for the inhibition at 0.5 µM in experiment [1] and in experiment [3] were 97.5% and 40.8%, respectively. Moreover, the values for the concentration for half-maximal inhibition (IC50) in experiment [2] and in experiment [6] were 21.2 nM and 14.4 nM, respectively. Also, the inhibition at 2 µM in experiment [4] amounted to 1.4%; in experiment [5] it was 95.5%.
`O=c1c2ccccc2[nH]c2ccc(Cn3ccnc3)cc12`: the inhibition at 0.5 µM in experiment [1] was 40.7%; in experiment [3], 3.4%. Also, the inhibition at 2 µM in experiment [4] and in experiment [5] was 0% in each case.
For the compound `N#Cc1ccc(C(c2ccc(C#N)cc2)n2cncn2)cc1` [LETROZOLE], the figures for the inhibition at 0.5 µM in experiment [1] and in experiment [3] were 16.4% and 25.6%, respectively. Further, the results for the inhibition at 2 µM in experiment [4] and in experiment [5] were 6.8% and 99%, respectively.
Take `CC(C)(C(=O)c1cccnc1)c1cccnc1` [METYRAPONE]: the inhibition at 0.5 µM was found to be 98% in experiment [1] and 95% in experiment [3]. This compound returned an inhibition at 2 µM in experiment [5] of 0%.
